Biological target: T1, TGR5 receptor (Homo sapiens, UniProt Q8TDU6)
T1 sequence (Q8TDU6 1-330): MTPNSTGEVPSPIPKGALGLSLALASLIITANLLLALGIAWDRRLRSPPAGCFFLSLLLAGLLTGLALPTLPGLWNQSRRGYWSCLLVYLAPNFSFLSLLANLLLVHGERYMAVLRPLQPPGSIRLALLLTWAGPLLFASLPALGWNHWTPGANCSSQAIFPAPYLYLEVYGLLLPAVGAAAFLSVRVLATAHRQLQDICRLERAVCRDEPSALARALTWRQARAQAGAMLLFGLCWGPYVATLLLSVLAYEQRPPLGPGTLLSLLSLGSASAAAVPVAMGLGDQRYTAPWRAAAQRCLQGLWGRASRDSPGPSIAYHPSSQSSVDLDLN
Experiment: Potency and efficacy on TGR5 receptor, in vitro assays (Kawamata 2003)
Assay type: cell-based
Description: The potency and efficacy of the compounds of the invention on TGR5 receptor was evaluated using in vitro assays.

C[C@H](CCC(=O)O)[C@H]1CCC2C3C(CC[C@@]21C)[C@@]1(C)CC[C@@H](O)C[C@H]1C[C@H]3O (stereo partly shown) [CDCA, ChenoDeoxyCholicAcid]
TGR5 Data Efficacy: 100%

Reference: US9243027B2, “TGR5 modulators and methods of use thereof” (Intercept Pharmaceuticals, Inc., priority 2007, dated 2016)
